Source: the NIST ThermoML archive (doi:10.1016/j.tca.2015.06.017)
± gives the expanded uncertainty stated by the source.

Settings: Liquid, Vibrating tube method

SMILES: CCCCCCC [heptane]
- mass density (283.15 K, 100 kPa): 692.57 ± 0.25 kg/m3
- mass density (283.15 K, 2000 kPa): 694.49 ± 0.27 kg/m3
- mass density (283.15 K, 5000 kPa): 697.06 ± 0.3 kg/m3
- mass density (283.15 K, 7000 kPa): 698.8 ± 0.33 kg/m3
- mass density (283.15 K, 10000 kPa): 701.2 ± 0.36 kg/m3
- mass density (283.15 K, 20000 kPa): 709.08 ± 0.47 kg/m3
- mass density (283.15 K, 30000 kPa): 716.12 ± 0.57 kg/m3
- mass density (283.15 K, 40000 kPa): 722.63 ± 0.67 kg/m3
- mass density (283.15 K, 50000 kPa): 728.63 ± 0.77 kg/m3
- mass density (283.15 K, 60000 kPa): 734.33 ± 0.86 kg/m3
- mass density (283.15 K, 65000 kPa): 736.99 ± 0.9 kg/m3
- mass density (288.15 K, 100 kPa): 688.55 ± 0.25 kg/m3
- mass density (288.15 K, 2000 kPa): 690.28 ± 0.27 kg/m3
- mass density (288.15 K, 5000 kPa): 693.01 ± 0.3 kg/m3
- mass density (288.15 K, 7000 kPa): 694.77 ± 0.33 kg/m3
- mass density (288.15 K, 10000 kPa): 697.23 ± 0.36 kg/m3
- mass density (288.15 K, 20000 kPa): 705.18 ± 0.47 kg/m3
- mass density (288.15 K, 30000 kPa): 712.38 ± 0.58 kg/m3
- mass density (288.15 K, 40000 kPa): 719.01 ± 0.68 kg/m3
- mass density (288.15 K, 50000 kPa): 725.2 ± 0.77 kg/m3
- mass density (288.15 K, 60000 kPa): 731.01 ± 0.87 kg/m3
- mass density (288.15 K, 65000 kPa): 733.73 ± 0.91 kg/m3
- mass density (293.15 K, 100 kPa): 684.19 ± 0.25 kg/m3
- mass density (293.15 K, 2000 kPa): 686.15 ± 0.27 kg/m3
- mass density (293.15 K, 5000 kPa): 688.99 ± 0.31 kg/m3
- mass density (293.15 K, 7000 kPa): 690.74 ± 0.33 kg/m3
- mass density (293.15 K, 10000 kPa): 693.41 ± 0.36 kg/m3
- mass density (293.15 K, 20000 kPa): 701.57 ± 0.48 kg/m3
- mass density (293.15 K, 30000 kPa): 708.99 ± 0.58 kg/m3
- mass density (293.15 K, 40000 kPa): 715.7 ± 0.68 kg/m3
- mass density (293.15 K, 50000 kPa): 722.03 ± 0.78 kg/m3
- mass density (293.15 K, 60000 kPa): 728.02 ± 0.87 kg/m3
- mass density (293.15 K, 65000 kPa): 730.72 ± 0.92 kg/m3
- mass density (298.15 K, 100 kPa): 679.95 ± 0.25 kg/m3
- mass density (298.15 K, 2000 kPa): 682.02 ± 0.27 kg/m3
- mass density (298.15 K, 5000 kPa): 684.8 ± 0.31 kg/m3
- mass density (298.15 K, 7000 kPa): 686.68 ± 0.33 kg/m3
- mass density (298.15 K, 10000 kPa): 689.23 ± 0.37 kg/m3
- mass density (298.15 K, 20000 kPa): 697.65 ± 0.48 kg/m3
- mass density (298.15 K, 30000 kPa): 705.17 ± 0.59 kg/m3
- mass density (298.15 K, 40000 kPa): 712.11 ± 0.69 kg/m3
- mass density (298.15 K, 50000 kPa): 718.54 ± 0.79 kg/m3
- mass density (298.15 K, 60000 kPa): 724.73 ± 0.88 kg/m3
- mass density (298.15 K, 65000 kPa): 727.65 ± 0.93 kg/m3
- mass density (303.15 K, 100 kPa): 675.68 ± 0.25 kg/m3
- mass density (303.15 K, 2000 kPa): 677.75 ± 0.27 kg/m3
- mass density (303.15 K, 5000 kPa): 680.76 ± 0.31 kg/m3
- mass density (303.15 K, 7000 kPa): 682.65 ± 0.33 kg/m3
- mass density (303.15 K, 10000 kPa): 685.52 ± 0.37 kg/m3
- mass density (303.15 K, 20000 kPa): 694.07 ± 0.48 kg/m3
- mass density (303.15 K, 30000 kPa): 701.86 ± 0.59 kg/m3
- mass density (303.15 K, 40000 kPa): 708.87 ± 0.69 kg/m3
- mass density (303.15 K, 50000 kPa): 715.5 ± 0.79 kg/m3
- mass density (303.15 K, 60000 kPa): 721.67 ± 0.89 kg/m3
- mass density (303.15 K, 65000 kPa): 724.56 ± 0.93 kg/m3
- mass density (308.15 K, 100 kPa): 671.39 ± 0.25 kg/m3
- mass density (308.15 K, 2000 kPa): 673.45 ± 0.27 kg/m3
- mass density (308.15 K, 5000 kPa): 676.49 ± 0.31 kg/m3
- mass density (308.15 K, 7000 kPa): 678.48 ± 0.33 kg/m3
- mass density (308.15 K, 10000 kPa): 681.37 ± 0.37 kg/m3
- mass density (308.15 K, 20000 kPa): 690.12 ± 0.49 kg/m3
- mass density (308.15 K, 30000 kPa): 698.22 ± 0.6 kg/m3
- mass density (308.15 K, 40000 kPa): 705.32 ± 0.7 kg/m3
- mass density (308.15 K, 50000 kPa): 712.12 ± 0.8 kg/m3
- mass density (308.15 K, 60000 kPa): 718.41 ± 0.9 kg/m3
- mass density (308.15 K, 65000 kPa): 721.43 ± 0.94 kg/m3
- mass density (313.15 K, 100 kPa): 667.06 ± 0.25 kg/m3
- mass density (313.15 K, 2000 kPa): 669.26 ± 0.27 kg/m3
- mass density (313.15 K, 5000 kPa): 672.35 ± 0.31 kg/m3
- mass density (313.15 K, 7000 kPa): 674.51 ± 0.34 kg/m3
- mass density (313.15 K, 10000 kPa): 677.42 ± 0.37 kg/m3
- mass density (313.15 K, 20000 kPa): 686.53 ± 0.49 kg/m3
- mass density (313.15 K, 30000 kPa): 694.65 ± 0.6 kg/m3
- mass density (313.15 K, 40000 kPa): 702.08 ± 0.71 kg/m3
- mass density (313.15 K, 50000 kPa): 708.98 ± 0.81 kg/m3
- mass density (313.15 K, 60000 kPa): 715.39 ± 0.9 kg/m3
- mass density (313.15 K, 65000 kPa): 718.32 ± 0.95 kg/m3
- mass density (318.15 K, 100 kPa): 662.54 ± 0.25 kg/m3
- mass density (318.15 K, 2000 kPa): 664.87 ± 0.27 kg/m3
- mass density (318.15 K, 5000 kPa): 668.35 ± 0.31 kg/m3
- mass density (318.15 K, 7000 kPa): 670.32 ± 0.34 kg/m3
- mass density (318.15 K, 10000 kPa): 673.52 ± 0.37 kg/m3
- mass density (318.15 K, 20000 kPa): 682.85 ± 0.49 kg/m3
- mass density (318.15 K, 30000 kPa): 691.31 ± 0.6 kg/m3
- mass density (318.15 K, 40000 kPa): 698.89 ± 0.71 kg/m3
- mass density (318.15 K, 50000 kPa): 705.82 ± 0.81 kg/m3
- mass density (318.15 K, 60000 kPa): 712.36 ± 0.91 kg/m3
- mass density (318.15 K, 65000 kPa): 715.32 ± 0.96 kg/m3
- mass density (323.15 K, 100 kPa): 658.32 ± 0.25 kg/m3
- mass density (323.15 K, 2000 kPa): 660.53 ± 0.28 kg/m3
- mass density (323.15 K, 5000 kPa): 664.05 ± 0.31 kg/m3
- mass density (323.15 K, 7000 kPa): 666.33 ± 0.34 kg/m3
- mass density (323.15 K, 10000 kPa): 669.41 ± 0.38 kg/m3
- mass density (323.15 K, 20000 kPa): 679.17 ± 0.5 kg/m3
- mass density (323.15 K, 30000 kPa): 687.64 ± 0.61 kg/m3
- mass density (323.15 K, 40000 kPa): 695.38 ± 0.72 kg/m3
- mass density (323.15 K, 50000 kPa): 702.5 ± 0.82 kg/m3
- mass density (323.15 K, 60000 kPa): 709.15 ± 0.92 kg/m3
- mass density (323.15 K, 65000 kPa): 712.32 ± 0.97 kg/m3
- mass density (328.15 K, 100 kPa): 653.81 ± 0.25 kg/m3
- mass density (328.15 K, 2000 kPa): 656.27 ± 0.28 kg/m3
- mass density (328.15 K, 5000 kPa): 659.84 ± 0.32 kg/m3
- mass density (328.15 K, 7000 kPa): 661.99 ± 0.34 kg/m3
- mass density (328.15 K, 10000 kPa): 665.25 ± 0.38 kg/m3
- mass density (328.15 K, 20000 kPa): 675.25 ± 0.5 kg/m3
- mass density (328.15 K, 30000 kPa): 684.02 ± 0.61 kg/m3
- mass density (328.15 K, 40000 kPa): 691.84 ± 0.72 kg/m3
- mass density (328.15 K, 50000 kPa): 699.13 ± 0.83 kg/m3
- mass density (328.15 K, 60000 kPa): 706.05 ± 0.93 kg/m3
- mass density (328.15 K, 65000 kPa): 709.3 ± 0.97 kg/m3
